Source: US9555049B2, “Arene ruthenium (II) derivatives containing iminophosphorane ligands and their use in cancer therapy” (Research Foundation of the City University of New York, priority 2014, dated 2017)

Experiments:
lung A549 = test: MTT toxicity assay, A549; type: cell-based, human; conditions: 24 h incubation, mean ± SD (n = 4)
Experimental: (§1) Compounds were added at different concentrations in triplicate.

[1] = system: triple negative breast MDA-MB-231; test: MTT toxicity assay, MDA-MB-231; conditions: read-out: IC50 MDA-MB-231, 24 h incubation, mean ± SD (n = 4)
Experimental: Cytotoxic activity of the compounds was determined in some human cancer cell lines: leukemia Jurkat-T, lung A549, prostate DU-145, pancreas MiaPaca2, and triple negative breast MDA-MB-231, in comparison to cisplatin.
(§2) A549 (lung carcinoma), MiaPaca2 (pancreatic carcinoma), MDA-MB-231 (Triple negative breast carcinoma) and 293T (non-tumoral embryonic kidney cells) were cultured in DMEM medium supplemented with 10% FCS, L-glutamine and penicillin/streptomycin. Media for A549 cells were also supplemented with 2.2 g/l Na2CO3, 100 μg/ml pyruvate and 5 ml non-essential amino acids (Invitrogen). All these media will be referred as ‘complete medium’ hereinafter. Cell cultures were maintained in a humidified atmosphere of 95% air/5% CO2 at 37° C.
(§3) For toxicity assays cells (5×10^4 for Jurkat cells and 10^4 for adherent cell lines) were seeded in flat-bottom 96-well plates (100 μl/well) in complete medium. Adherent cells were allowed to attach for 24 h prior to addition of cisplatin or tested compounds. Compounds were added at different concentrations in triplicate. Cells were incubated with cisplatin or compounds for 24 h and then cell proliferation was determined by a modification of the MTT-reduction method. […] Finally, formazan crystal was dissolved by adding 100 μl/well ^iPrOH (0.05 M HCl) and gently shaking. The optical density was measured at 570 nm using a 96-well multiscanner autoreader (ELISA). In some experiments total cell number and cell viability were determined by the Trypan-blue exclusion test.

prostate DU-145 = test: MTT toxicity assay, DU-145; type: cell-based, human; conditions: 24 h incubation, mean ± SD (n = 4)
Experimental: as §1

pancreas MiaPaca2 = test: MTT toxicity assay, MiaPaca2; type: cell-based, human; conditions: 24 h incubation, mean ± SD (n = 4)
Experimental: as §1

plasmid pBR322 DNA = test: Plasmid (pBR322) DNA electrophoresis (mobility shift assay); type: binding; conditions: 37° C., twenty hours, Tris/HCl buffer, up to drug/DNA ratio 2.0
Experimental: For these experiments, cisplatin, all uncoordinated ligands, and the starting dimeric organometallic ruthenium (II) complex [Ru(η^6-p-cymene)Cl]2 were also measured as controls. Plasmid pBR322 presents two main forms, OC (open circular or relaxed) and CCC (covalently closed or supercoiled), which display different electrophoretic mobility. Changes in the electrophoretic mobility of any of the forms upon incubation of the plasmid with a compound are usually interpreted as evidence of interaction. Generally, a drug that induces unwinding of the CCC form will produce a retardation of the electrophoretic mobility, while coiling of the OC form will result in increased mobility.
10 μL aliquots of pBR322 plasmid DNA (20 μg/mL) in buffer (5 mM Tris/HCl, 50 mM NaClO4, pH=7.39) were incubated with different concentrations of the compounds (1-4, 8, 9, [(η^6-p-cymene)Ru(μ-Cl)Cl]2) (in the range 0.25 and 4.0 metal complex:DNAbp) at 37° C. for 20 h in the dark. Samples of free DNA and cisplatin-DNA were prepared as controls. After the incubation period, the samples were loaded onto the 1% agarose gel. The samples were separated by electrophoresis for 1.5 h at 80 V in Tris-acetate/EDTA buffer (TAE). Afterwards, the gel was stained for 30 min. with a solution of GelRed Nucleic Acid stain.

[2] = system: human renal proximal tubular cells (RPTC); test: XTT assay for RPTC cells; type: cell-based; conditions: XTT assay 24 hours
Experimental: Renal proximal tubular cells in primary culture have been described as an in vitro model to study nephrotoxicity.
The human Renal Proximal Tubule Cells (RPTC) a non-tumoral human kidney epithelial cell line (obtained from Lifeline Cell Technology, Frederick, Md., USA) were cultured in Lifeline's RenaLife Medium containing RenaLife LifeFactors with 2.4 mM L-Glutamine, 5 Î¼ g/mL rh insulin, 1.0 Î¼M epinephrine, 10 nM triiodothyronine, 0.1 Î¼ g/mL hydrocortisone hemisuccinate, 10 ng/mL rh EGF, 0.5% FBS and 5 Î¼ g/m transferrin PS (all from Lifeline Cell Technology), at 37° C. in a humidified atmosphere of 95% of air and 5% CO2 (University of Hawaii Cancer Center, Honolulu, Hi., USA). For evaluation of cell viability, cells were seeded at a concentration of 5×10^3 cells/well in 90 μl Lifeline's RenaLife complete medium into tissue culture grade 96-well flat bottom microplates (Thermo Scientific BioLite Microwell Plate, Fisher Scientific, Waltham, Mass., USA) and grown for 24 h. […] The optical density of each well (96-well plates) was quantified using EnVision Multilabel Plate Readers (Perkin Elmer, Waltham Mass., USA) at 450 nm wavelength to measure absorbance. The percentage of surviving cells was calculated from the ratio of absorbance of treated to untreated cells. […]

leukemia Jurkat-T = test: MTT toxicity assay, Jurkat; type: cell-based, human; conditions: 24 h incubation, mean ± SD (n = 4)
Experimental: as §1

[3] = system: non-tumorigenic human embryonic kidney cells HEK293T; test: MTT toxicity assay, HEK-293T; type: cell-based; conditions: 24 h incubation, mean ± SD (n = 4)
Experimental: In order to assess the compounds' selectivity for cancerous cells with respect to normal cell lines, the compounds were also screened for their antiproliferative effects on the non-tumorigenic human embryonic kidney cells HEK293T.
as §2, §3

Solubility = conditions: 1:99 DMSO:H2O
[4] = Stability in solution by 31P and 1H NMR; air stability; type: physicochemical
Experimental: The stability of the water-soluble complexes was studied by ^31P {^1H} and ^1H NMR spectroscopy in D2O. […] However, as explained elsewhere in this specification, the biological activity of compound 2 is very fast (in 8 hours compound 2 induces 80% of apoptosis on Jurkat cells). Thus, without wishing to be bound to any particular theory, the observed biological activity is believed to mainly come from coordination compound 2 or its hydrolysis product.

[5] = target: Human serum albumin (HSA) (Homo sapiens, UniProt P02768); test: Interaction with HSA by fluorescence spectroscopy (Stern-Volmer); type: binding; conditions: HSA 10 μM, phosphate buffer pH 7.4
Experimental: The fluorescence data was analyzed by the Stern-Volmer equation.
A solution of each compound (8 mM) in DMSO was prepared and ten aliquots of 2.5 μL were added successively to a solution of HSA (10 μM) in phosphate buffer (pH=7.4) to achieve final metal complex concentrations in the range 10-100 μM. The excitation wavelength was set to 295 nm, and the emission spectra of HSA samples were recorded at room temperature in the range of 300 to 450 nm. The fluorescence intensities of all the metal compounds, the buffer and the DMSO are negligible under these conditions. The fluorescence was measured 240 s. after each addition of compound solution. The data were analyzed using the classical Stern-Volmer equation F0/F=1+KSV[Q].

human cell lines = test: MTT toxicity assay, all tested human cell lines; type: cell-based; conditions: 24 h incubation
Experimental: as §1

Jurkat cells = test: Cell death analysis (PS exposure, mitochondrial membrane potential, Hoechst) in Jurkat cells
Experimental: The mechanism of cell death induced by compound 2 and compound 3 was explored in Jurkat cells. Nuclei morphology after twenty-four hour incubation with 1 μM solution of compound 2 or compound 3 was analyzed by Hoechst staining. […] Other apoptotic parameters such as phosphatidylserine exposure and mitochondrial membrane potential dissipation were analyzed using fluorescent probes.
To determine whether caspase inhibition prevented or just delayed cell death, experiments were performed in which cells were treated with compound 2 or compound 3 for twenty-four hours in the presence of z-VAD-fmk and then washed and further cultured in fresh medium for twenty-four hours (FIG. 6). PS exposure was analyzed after the first twenty-four hours in the presence of compound+z-VAD-fmk and twenty-four hours after washing.
Apoptosis/necrosis hallmarks of cells treated with compounds 2 and 3 were analyzed by measuring mitochondrial membrane potential and/or exposure of phosphatidylserine. In some experiments the general caspase inhibitor z-VAD-fmk was added at 50 μM 1 h before compounds. For mitochondrial membrane potential determination cells (2.5×10^5 in 200 μl) after treatment with compounds were incubated at 37° C. for 15 min. in ABB (140 mM NaCl, 2.5 mM CaCl2, 10 mM Hepes/NaOH, pH 7.4) containing 60 mM tetramethylrhodamine ethyl ester (TMRE, Molecular Probes). Phosphatidylserine exposure was quantified by labeling cells with AnnexinV-PE or AnnexinV-DY636 (Invitrogen) after treatment with compounds. AnnexinV was added at a concentration of 0.5 μg/mL and cells were incubated at room temperature for 15 min. In all cases, cells were diluted to 1 ml with ABB to be analyzed by flow cytometry (FACScan, BD Bioscience, Spain).

CT DNA = test: DNA precipitation and quantification of ruthenium by ICP-MS; type: binding, calf; parameters: unit not given here
Experimental: In this experiment, 500 μM concentration DNA solutions were treated with 2 equiv of ruthenium compound 2 and compound 3 for twenty hours at 37° C. to promote DNA precipitation. The samples were then centrifuged, and the resulting pellets were analyzed for DNA and metal concentration.
Stock solutions of compounds 2 and 3 (4 mM in water) and CT DNA (11.56 mM in 5 mM Tris/HCl, 50 mM NaClO4, pH=7.39) were freshly prepared prior to use. 216 μl of DNA stock solution were diluted in 3.53 mL of buffer and 1.25 mL of compound stock solution were then added to achieve 5 mL final volume at concentrations of 500 μM in DNA and 1 mM in metal compound. Each sample was incubated at 37° C. for a period of 20 h, then cooled down to room temperature and centrifuged at 3000 rpm for 15 min. and at 4000 rpm for extra 40 min. The supernatant was separated and analyzed for CT DNA concentration by CD spectroscopy. The resulting pellet was washed twice with ice-cold ethanol (1 mL), centrifuged at RT for 1 min. at 4000 rpm, dried under high vacuum and analyzed for Ru content by ICP-MS. The total amount of DNA in each sample was 0.92 mg. Every experiment was run in duplicate.

[6] = Jurkat cells, general caspase inhibitor z-VAD-fmk

Human serum albumin (HSA), sequence (P02768 25-609): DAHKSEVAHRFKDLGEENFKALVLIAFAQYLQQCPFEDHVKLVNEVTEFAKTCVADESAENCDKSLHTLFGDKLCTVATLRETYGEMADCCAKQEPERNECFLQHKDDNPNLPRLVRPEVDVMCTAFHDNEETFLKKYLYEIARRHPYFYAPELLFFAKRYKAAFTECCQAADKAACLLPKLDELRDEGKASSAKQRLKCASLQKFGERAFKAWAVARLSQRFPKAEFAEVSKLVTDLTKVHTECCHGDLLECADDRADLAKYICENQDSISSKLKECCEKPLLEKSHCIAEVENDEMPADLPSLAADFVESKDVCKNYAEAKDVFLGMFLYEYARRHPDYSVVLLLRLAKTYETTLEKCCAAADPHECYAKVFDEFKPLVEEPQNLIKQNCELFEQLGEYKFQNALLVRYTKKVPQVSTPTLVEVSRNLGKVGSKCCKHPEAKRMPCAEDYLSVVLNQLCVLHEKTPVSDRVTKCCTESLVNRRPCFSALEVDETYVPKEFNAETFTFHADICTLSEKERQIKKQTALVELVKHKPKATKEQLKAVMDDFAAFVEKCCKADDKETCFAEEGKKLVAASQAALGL

| Molecule | IC50 (lung A549) | IC50 [1] | IC50 (prostate DU-145) | IC50 (pancreas MiaPaca2) | electrophoretic mobility of plasmid pBR322 DNA (plasmid pBR322 DNA) | IC50 [2] | IC50 (leukemia Jurkat-T) | IC50 [3] | solubility in DMSO:H2O mixtures (Solubility) | stability in d^6-DMSO solution [4] | Stern-Volmer constant [5] | stability in D2O (NMR spectra) [4] | IC50 (human cell lines) | AnnexinV+ cells, compound + z-VAD-fmk (Jurkat cells; 24 h with compound + z-VAD-fmk, then 24 h in fresh medium after washing) | PS exposure with z-VAD-fmk (Jurkat cells; [6]) | Δψm loss with z-VAD-fmk (Jurkat cells; [6]) | Δψm loss (Jurkat cells; Jurkat cells, without z-VAD-fmk) | Nuclei morphology (Hoechst staining) (Jurkat cells; Jurkat, 24 h incubation with 1 μM solution) | AnnexinV+ cells, compound alone for twenty-four hours (Jurkat cells; compound alone, 24 h) | ruthenium content in DNA precipitate (CT DNA) |
| --- | --- | --- | --- | --- | --- | --- | --- | --- | --- | --- | --- | --- | --- | --- | --- | --- | --- | --- | --- | --- |
| N.N.[Cl][Pt][Cl] [Cisplatin, reference compound] | 114 ± 9.1 µM | 131 ± 18 µM | 112 ± 33 µM | 76.5 ± 7.4 µM | able to both increase and decrease the mobility of the OC and the CCC forms | 46.4 ± 2.46 µM | 10.8 ± 1.2 µM | 69 ± 6.7 µM |  |  |  |  |  |  |  |  |  |  |  |  |
| Cc1ccc(C(C)C)cc1.O=C(N=P12CN3CN(CN(C3)C1)C2)c1cccc[c]1[Ru][Cl] [Compound 9, [(η^6-p-cymene)Ru{(PTA═N—CO-2-C6H4)-κ-C,N}Cl]] | > 125 µM | 75.4 ± 9.8 µM | 126 ± 28 µM | 54.5 ± 16 µM |  |  | 17.7 ± 7.5 µM | 142 ± 13.1 µM | soluble in mixtures 1:99 DMSO:H2O in micromolar concentrations |  |  |  |  |  |  |  |  |  |  |  |
| [(η^6-p-cymene)Ru((Ph3P═N—CO-2-C6H4)-κ-C,N)Cl] [Compound 8] | 29.9 ± 5.8 µM | 7.1 ± 0.11 µM | 14.2 ± 4.2 µM | 8.2 ± 0.98 µM |  |  | 2.39 ± 0.27 µM | 4.1 ± 0.06 µM | soluble in mixtures 1:99 DMSO:H2O in micromolar concentrations | stable for weeks | 18100 M⁻¹ |  |  |  |  |  |  |  |  |  |
| [(η^6-p-cymene)Ru([{Cp—P(Ph2)═N—CH2-2-NC5H4}Fe(Cp)]-κ-N,N)Cl]Cl [Compound 4] | > 125 µM | > 125 µM | 148 ± 33 µM | > 125 µM | no mobility retardation is observed |  | 9.3 ± 0.07 µM | 114 ± 14.8 µM |  | stable for weeks |  | does not change for over three days |  |  |  |  |  |  |  |  |
| [(η^6-p-cymene)Ru(μ-Cl)Cl]2 |  |  |  |  |  |  |  |  |  |  |  |  | > 125 µM |  |  |  |  |  |  |  |
| [(η^6-p-cymene)Ru{(Ph3P═N-8-C9H6N)-κ-N,N}Cl]Cl [Compound 3] | 43.3 ± 8 µM | 16.2 ± 0.9 µM | 6.6 ± 0.85 µM | 7 ± 0.4 µM | no mobility retardation is observed |  | 0.9 ± 0.32 µM | 2.2 ± 1.1 µM |  | stable for weeks |  | does not change significantly over time |  | 32% | completely abrogated | 20% | 40% | chromatin condensation and fragmentation | 28% | 2.43±0.18 |
| [(η^6-p-cymene)Ru{(Ph3P═N—CO-2-N—C5H4)-κ-N,O}Cl](PF6) [Compound 1] | 9.9 ± 1.9 µM | 4.91 ± 2.7 µM | 1.89 ± 0.64 µM | 2.4 ± 0.18 µM | induce retardation of the mobility of the CCC form |  | 1.1 ± 0.14 µM | 2.8 ± 0.2 µM |  | stable for weeks |  |  |  |  |  |  |  |  |  |  |
